Measurements: ChEMBL document CHEMBL3390836, “Mannich- and LedererManasse-based analogues of the natural product S-(+)-curcuphenol as cancer proliferation and migration inhibitors” (Medchemcomm, 2012)

Experiments:
Type in all cases: functional
[1] = Cytotoxicity against human OVCAR3 cells assessed as cell growth at 10^-8 M after 48 hrs by SRB assay relative to control; conditions: OVCAR-3, 48 h, read-out: Activity
[2] = Cytotoxicity against human HCT116 cells assessed as cell growth at 10^-7 M after 48 hrs by SRB assay relative to control; conditions: HCT-116, 48 h, read-out: Activity
NCI-H23 [3] = assay: Cytotoxicity against human NCI-H23 cells assessed as cell growth at 10^-8 M after 48 hrs by SRB assay relative to control; conditions: NCI-H23, 48 h, read-out: Activity
NCI-H23 [4] = assay: Cytotoxicity against human NCI-H23 cells assessed as cell growth at 10^-4 M after 48 hrs by SRB assay relative to control; conditions: NCI-H23, 48 h, read-out: Activity
IGROV-1 = assay: Cytotoxicity against human IGROV1 cells assessed as cell growth at 10^-4 M after 48 hrs by SRB assay relative to control; conditions: IGROV-1, 48 h, read-out: Activity
A549 [5] = assay: Cytotoxicity against human A549 cells after 48 hrs by SRB assay; conditions: A549, 48 h
SK-MEL-5 = assay: Cytotoxicity against human SK-MEL-5 cells assessed as cell growth at 10^-8 M after 48 hrs by SRB assay relative to control; conditions: SK-MEL-5, 48 h, read-out: Activity
HT-29 [6] = assay: Cytotoxicity against human HT-29 cells assessed as cell growth at 10^-8 M after 48 hrs by SRB assay relative to control; conditions: HT-29, 48 h, read-out: Activity
[7] = Cytotoxicity against human OVCAR5 cells assessed as cell growth at 10^-7 M after 48 hrs by SRB assay relative to control; conditions: OVCAR-5, 48 h, read-out: Activity
MDA-MB-435 [8] = assay: Cytotoxicity against human MDA-MB-435 cells assessed as cell growth at 10^-4 M after 48 hrs by SRB assay relative to control; conditions: MDA-MB-435, 48 h, read-out: Activity
[9] = Cytotoxicity against human HCT116 cells assessed as cell growth at 10^-8 M after 48 hrs by SRB assay relative to control; conditions: HCT-116, 48 h, read-out: Activity
SW-620 = assay: Cytotoxicity against human SW620 cells assessed as cell growth at 10^-6 M after 48 hrs by SRB assay relative to control; conditions: SW-620, 48 h, read-out: Activity
A549 [10] = assay: Cytotoxicity against human A549 cells assessed as cell growth at 10^-6 M after 48 hrs by SRB assay relative to control; conditions: A549, 48 h, read-out: Activity
LOX IMVI = assay: Cytotoxicity against human LOXIMVI cells assessed as cell growth at 10^-8 M after 48 hrs by SRB assay relative to control; conditions: read-out: Activity
[11] = Cytotoxicity against human UACC62 cells assessed as cell growth at 10^-4 M after 48 hrs by SRB assay relative to control; conditions: UACC-62, 48 h, read-out: Activity
786-0 [12] = assay: Cytotoxicity against human 786-0 cells after 48 hrs by SRB assay; conditions: 786-0, 48 h
RXF 393 = assay: Cytotoxicity against human RXF393 cells assessed as cell growth at 10^-6 M after 48 hrs by SRB assay relative to control; conditions: RXF 393, 48 h, read-out: Activity
A549 [13] = assay: Cytotoxicity against human A549 cells assessed as cell growth at 10^-7 M after 48 hrs by SRB assay relative to control; conditions: A549, 48 h, read-out: Activity
CAKI-1 = assay: Cytotoxicity against human Caki1 cells assessed as cell growth at 10^-8 M after 48 hrs by SRB assay relative to control; conditions: CAKI-1, 48 h, read-out: Activity
ACHN [14] = assay: Cytotoxicity against human ACHN cells assessed as cell growth at 10^-7 M after 48 hrs by SRB assay relative to control; conditions: read-out: Activity
SN12C = assay: Cytotoxicity against human SN12C cells assessed as cell growth at 10^-8 M after 48 hrs by SRB assay relative to control; conditions: read-out: Activity
NCI-H460 [15] = assay: Cytotoxicity against human NCI-H460 cells assessed as cell growth at 10^-7 M after 48 hrs by SRB assay relative to control; conditions: NCI-H460, 48 h, read-out: Activity
[16] = Cytotoxicity against human UO31 cells assessed as cell growth at 10^-7 M after 48 hrs by SRB assay relative to control; conditions: UO-31, 48 h, read-out: Activity
HT-29 [17] = assay: Cytotoxicity against human HT-29 cells assessed as cell growth at 10^-6 M after 48 hrs by SRB assay relative to control; conditions: HT-29, 48 h, read-out: Activity
SK-MEL-2 = assay: Cytotoxicity against human SK-MEL-2 cells after 48 hrs by SRB assay; conditions: SK-MEL-2, 48 h
[18] = Cytotoxicity against human SKOV3 cells after 48 hrs by SRB assay; conditions: SK-OV-3, 48 h
MDA-MB-435 [19] = assay: Cytotoxicity against human MDA-MB-435 cells assessed as cell growth at 10^-6 M after 48 hrs by SRB assay relative to control; conditions: MDA-MB-435, 48 h, read-out: Activity
HCC 2998 = assay: Cytotoxicity against human HCC2998 cells assessed as cell growth at 10^-7 M after 48 hrs by SRB assay relative to control; conditions: HCC 2998, 48 h, read-out: Activity
NCI-H460 [20] = assay: Cytotoxicity against human NCI-H460 cells assessed as cell growth at 10^-4 M after 48 hrs by SRB assay relative to control; conditions: NCI-H460, 48 h, read-out: Activity
ACHN [21] = assay: Cytotoxicity against human ACHN cells after 48 hrs by SRB assay
[22] = Cytotoxicity against human EKVX cells after 48 hrs by SRB assay
KM12 = assay: Cytotoxicity against human KM12 cells assessed as cell growth at 10^-8 M after 48 hrs by SRB assay relative to control; conditions: KM12, 48 h, read-out: Activity
[23] = Cytotoxicity against human OVCAR8 cells assessed as cell growth at 10^-4 M after 48 hrs by SRB assay relative to control; conditions: OVCAR-8, 48 h, read-out: Activity
786-0 [24] = assay: Cytotoxicity against human 786-0 cells assessed as cell growth at 10^-4 M after 48 hrs by SRB assay relative to control; conditions: 786-0, 48 h, read-out: Activity
[25] = Cytotoxicity against human EKVX cells assessed as cell growth at 10^-8 M after 48 hrs by SRB assay relative to control; conditions: read-out: Activity
NCI-H322M = assay: Cytotoxicity against human NCI-H322M cells after 48 hrs by SRB assay
[26] = Cytotoxicity against human HCT15 cells after 48 hrs by SRB assay; conditions: HCT-15, 48 h; for CC50: read-out: LC50 (the source's name)

CC(C)=CCC[C@H](C)c1ccc(C)c(CNCC2CCNCC2)c1O
growth at 0.01 µM [1]: 105%
growth at 0.1 µM [2]: 98%
growth at 0.01 µM (NCI-H23 [3]): 94%
growth at 100 µM (NCI-H23 [4]): 54%
growth at 100 µM (IGROV-1): 24%
GI50 (A549 [5]): 7.27 µM
LC50 (A549 [5]): > 25 µM
TGI (A549 [5]): 24.9 µM
growth at 0.01 µM (SK-MEL-5): 93%
growth at 0.01 µM (HT-29 [6]): 108%
growth at 0.1 µM [7]: 96%
growth at 100 µM (MDA-MB-435 [8]): -66%
growth at 0.01 µM [9]: 100%
growth at 1 µM (SW-620): 99%
growth at 1 µM (A549 [10]): 98%
growth at 0.01 µM (LOX IMVI): 95%
growth at 100 µM [11]: -81%
GI50 (786-0 [12]): 5.01 µM
LC50 (786-0 [12]): > 25 µM
TGI (786-0 [12]): 11.5 µM
growth at 1 µM (RXF 393): 95%
growth at 0.1 µM (A549 [13]): 98%
growth at 0.01 µM (CAKI-1): 92%
growth at 0.1 µM (ACHN [14]): 94%
growth at 0.01 µM (SN12C): 92%
growth at 0.1 µM (NCI-H460 [15]): 98%
growth at 0.1 µM [16]: 86%
growth at 1 µM (HT-29 [17]): 113%
GI50 (SK-MEL-2): 5.03 µM
LC50 (SK-MEL-2): 19.2 µM
TGI (SK-MEL-2): 9.83 µM
GI50 [18]: 6.82 µM
LC50 (concentration killing 50% of cells) [18]: > 25 µM
TGI [18]: > 25 µM
growth at 1 µM (MDA-MB-435 [19]): 92%
growth at 0.1 µM (HCC 2998): 95%
growth at 100 µM (NCI-H460 [20]): -68%
GI50 (ACHN [21]): 4.68 µM
LC50 (concentration killing 50% of cells) (ACHN [21]): > 25 µM
TGI (ACHN [21]): 12.7 µM
GI50 [22]: 8.56 µM
LC50 [22]: > 25 µM
TGI [22]: > 25 µM
growth at 0.01 µM (KM12): 97%
growth at 100 µM [23]: -60%
growth at 100 µM (786-0 [24]): -47%
growth at 0.01 µM [25]: 99%
GI50 (NCI-H322M): 7.02 µM
LC50 (NCI-H322M): > 25 µM
TGI (NCI-H322M): > 25 µM
GI50 [26]: 5.19 µM
TGI [26]: 18.6 µM
CC50 [26]: > 25 µM

CC(C)=CCC[C@H](C)c1ccc(C)c2c1OCN(CC1CCNCC1)C2
growth at 0.01 µM [1]: 99%
growth at 0.1 µM [2]: 100%
growth at 0.01 µM (NCI-H23 [3]): 94%
growth at 100 µM (NCI-H23 [4]): -71%
growth at 100 µM (IGROV-1): -86%
GI50 (A549 [5]): 13 µM
LC50 (A549 [5]): 59.7 µM
TGI (A549 [5]): 27.8 µM
growth at 0.01 µM (SK-MEL-5): 99%
growth at 0.01 µM (HT-29 [6]): 102%
growth at 0.1 µM [7]: 87%
growth at 100 µM (MDA-MB-435 [8]): -83%
growth at 0.01 µM [9]: 100%
growth at 1 µM (SW-620): 103%
growth at 1 µM (A549 [10]): 96%
growth at 0.01 µM (LOX IMVI): 100%
growth at 100 µM [11]: -92%
GI50 (786-0 [12]): 12.1 µM
LC50 (786-0 [12]): 56.9 µM
TGI (786-0 [12]): 26.3 µM
growth at 1 µM (RXF 393): 125%
growth at 0.1 µM (A549 [13]): 90%
growth at 0.01 µM (CAKI-1): 101%
growth at 0.1 µM (ACHN [14]): 105%
growth at 0.01 µM (SN12C): 97%
growth at 0.1 µM (NCI-H460 [15]): 106%
growth at 0.1 µM [16]: 94%
growth at 1 µM (HT-29 [17]): 103%
GI50 (SK-MEL-2): 18.2 µM
LC50 (SK-MEL-2): 69.2 µM
TGI (SK-MEL-2): 35.5 µM
GI50 [18]: 16.7 µM
LC50 (concentration killing 50% of cells) [18]: 57.8 µM
TGI [18]: 31.1 µM
growth at 1 µM (MDA-MB-435 [19]): 96%
growth at 0.1 µM (HCC 2998): 105%
growth at 100 µM (NCI-H460 [20]): -94%
GI50 (ACHN [21]): 15.3 µM
LC50 (concentration killing 50% of cells) (ACHN [21]): 58.9 µM
TGI (ACHN [21]): 30 µM
GI50 [22]: 20.7 µM
LC50 [22]: > 100 µM
TGI [22]: 66.9 µM
growth at 0.01 µM (KM12): 99%
growth at 100 µM [23]: -85%
growth at 100 µM (786-0 [24]): -87%
growth at 0.01 µM [25]: 104%
GI50 (NCI-H322M): 19.4 µM
LC50 (NCI-H322M): 77.8 µM
TGI (NCI-H322M): 38.8 µM
GI50 [26]: 6.51 µM
TGI [26]: 21.1 µM
CC50 [26]: 54 µM
